Data from patent US20110123483A1, “HMGB1 FOR CANCER TREATMENT” (DEUTSCHES KREBSFORSCHUNGSZENTRUM, priority 2009, published 2011).

Legend:
Format in all cases: cell-based, human
JNK1/2 = assay: Western blot analysis of JNK1/2 phosphorylation; conditions: NAC, rhHMGB1 40 nM (FIG. 3E)
Description: The U251 MG tumor cells were lysed in lysis buffer containing 20 mmol/L Tris-HCl (pH 7.4), 137 mmol/L NaCl, 10% (v/v) glycerine, 1% Triton X-100, 2 mmol/L EDTA, 100 mmol/L phenylmethylsulfonyl fluoride, and protease inhibitors (Complete mini; Roche Molecular Biochemicals). For the detection of phosphoprotein levels, 10 mmol/L NaPPi, 50 mmol/L NaF, and 20 mmol/L NaVO4 were added to the lysis buffer. After 15 min incubation on ice, the lysates were centrifuged at 14,000×g for 10 min. The total protein concentration of the lysates was measured using the Bradford assay (Bio-Rad). Soluble protein (25-100 μg per lane) was separated on 10% to 15% polyacrylamide gels and blotted onto nitrocellulose by standard procedures. […]

[1] = test system: U251MG glioblastoma cells; assay: Cytotoxicity assay, cell survival by crystal violet staining
Description: 20,000 U251MG glioblastoma cells or human astrocytic cells (ScienCell) were plated into 96-well plates. After 24 h cells were treated with rhHMGB1 (Sigma Aldrich) or rat recombinant HMGB1 (generously provided by Angelika Bierhaus, Heidelberg, Germany), and TRAIL (for 24 h) or Temozolomide (for 72 h) alone or in combination, respectively. […] Cell proliferation was assessed by seeding 50,000 U251 MG cells in 6 cm culture plates and treatment with rhHMGB1, followed by counting the cells in a Neubauer chamber at day 0, 2, 4 and 5.

U251 MG cells [2] = assay: ROS measurement by DCF fluorescence and FACS analysis; conditions: co-treatment with rhHMGB1 (FIG. 3A)
Description: For measurement of reactive oxygen species (ROS) and mitochondrial membrane potential (MMP) 1.5×10^6 U251 MG cells were seeded in 6 cm plates, treated with 40 nM rhHMGB1 for 24 h and incubated with the fluorescent DiOC6 (3,3′-dihexyloxacarbocyanine iodide, 40 nmol/ll, Sigma Chemical Co., St. Louis, Mo.) or with the fluorescent H2DCF-DA (dichlorodihydrofluorescein diacetate, 10 μM, Invitrogen) for 1 h at 37° C., respectively. The cells were trypsinized and centrifuged at 2,000 rpm for 5 min at 4° C. The supernatant was discarded and the pellet was washed 2× with sterile Dulbecco's PBS containing 0.1% fetal calf serum on ice and again centrifuged at 2,000 rpm for 5 min at 4° C. The pellet was resuspended in 500 μl sterile Dulbecco's PBS on ice. Oxidation of H2DCF to DCF by ROS and DiOC6 accumulation in mitochondria were measured immediately at FL-1 by flow cytometry using a FACScalibur (Beckton Dickinson, Heidelberg, Germany). Cell cycle was determined by measurement of priopidiumiodide (PI)-uptake of the cells according to standard procedures. Briefly, the cells were harvested and washed twice in sterile Dulbecco's PBS on ice, spun down at 2,000 rpm for 5 min at 4° C. and fixed with 70% ethanol for 30 min at 4° C. Contaminating RNA was eliminated by treatment with 100 μg/ml of RNase A, then 50 μg/ml PI was added and DNA content was measured immediately at FI-2. […]

U251 MG cells [3] = assay: Subcellular fractionation and Western blot: cytochrome c release, caspase 3 cleavage
Description: The U251 MG tumor cells were lysed in lysis buffer containing 20 mmol/L Tris-HCl (pH 7.4), 137 mmol/L NaCl, 10% (v/v) glycerine, 1% Triton X-100, 2 mmol/L EDTA, 100 mmol/L phenylmethylsulfonyl fluoride, and protease inhibitors (Complete mini; Roche Molecular Biochemicals). For the detection of phosphoprotein levels, 10 mmol/L NaPPi, 50 mmol/L NaF, and 20 mmol/L NaVO4 were added to the lysis buffer. After 15 min incubation on ice, the lysates were centrifuged at 14,000×g for 10 min. The total protein concentration of the lysates was measured using the Bradford assay (Bio-Rad). Soluble protein (25-100 μg per lane) was separated on 10% to 15% polyacrylamide gels and blotted onto nitrocellulose by standard procedures. The membranes were washed, incubated with primary antibody as indicated: mouse anti-human caspase-3 (1:500, Imgenex, San Diego, Calif.); polyclonal rabbit anti-human phosphorylated p44/42 mitogen-activated protein kinase and polyclonal rabbit anti-human phosphorylated stress-activated protein kinase/JNK (1:1,000, Cell Signaling Technology, Inc.); polyclonal anti-rabbit JNK 54/46 (1:1,000, Cell Signaling Technology, Inc.); polyclonal rabbit anti-human IkBalpha (1:500, Santa Cruz Biotechnology, Inc.); mouse monoclonal anti-human BNIP3 (1:10,000, R&D Systems, Inc.); mouse monoclonal anti-human phosphorylated-histone H2A.X (Upstate, Inc.); mouse monoclonal anti-human cytochrome c (1:100, BD Biosciences Pharmingen GmbH, Heidelberg, Germany); mouse anti-human cytochrome c oxidase complex IV (1:100, Molecular Probes, Invitrogen, Karlsruhe, Germany); polyclonal rabbit antimalondialdehyde (1:250, Calbiochem, Merck, Darmstadt, Germany) and mouse monoclonal antibodies to β-tubulin or β-actin (1:3,000, Sigma Chemical Co., St. Louis, Mo.), washed, and incubated with the appropriate secondary antibody (1:3,000; horseradish peroxidase-conjugated, Bio-Rad). Bound antibodies were visualized using an enhanced chemiluminescence detection system (GE-Healthcare, Uppsala, Sweden).
Enrichment of mitochondrial fractions was performed using the ApoAlert Cell Fractionation Kit (Clontech, Mountain View, Calif.) as described previously (Gdynia et al., 2008). Briefly, after centrifugation and several washing steps, the cell pellet was resuspended in ice-cold 1× Fractionation Buffer Mix containing protease inhibitors (Complete mini; Roche Molecular Biochemicals, Indianapolis, Ind.) and 1 mM 1,4-Dithio-DL-threitol solution (DTT). After 10 min incubation on ice, cells were homogenized with a dounce tissue grinder. Efficiency of homogenization was controlled by microscopy. The homogenate was centrifuged at 700×g for 10 min at 4° C. and the resulting supernatant at 10,000×g for 25 min at 4° C. […]

pseudo rho zero cells = assay: Survival of pseudo rho zero cells by crystal violet analysis; conditions: TRAIL 100 ng/ml, 24 h (FIG. 5)
Description: U251 glioblastoma cells and non-immortalized human astrocytic cells (ScienCell, USA) were maintained in DMEM (Life Technologies) containing 10% FCS, 4.5 g/L glucose, glutamine, 110 mg/L sodium pyruvate, and 1% penicillin-streptomycin (Life Technologies) and in astrocyte medium (ScienCell) containing 2% FBS (fetal bovine serum) and 1% penicillin-streptomycin at 37° C. and 5% CO2. For the generation of pseudo rho zero cells (0.0), U251 MG cells were treated with low dose (250 ng/ml) ethidiumbromide for 3 months. The cells were supplemented with DMEM (10% FCS, 1% P/S) containing 50 μg/ml L-pyruvate and 5 mg/ml uridine (King and Attardi, 1989).
20,000 U251MG glioblastoma cells or human astrocytic cells (ScienCell) were plated into 96-well plates. After 24 h cells were treated with rhHMGB1 (Sigma Aldrich) or rat recombinant HMGB1 (generously provided by Angelika Bierhaus, Heidelberg, Germany), and TRAIL (for 24 h) or Temozolomide (for 72 h) alone or in combination, respectively. Cell survival was measured by crystal violet staining as described previously (Gdynia et al., 2007). Cell proliferation was assessed by seeding 50,000 U251 MG cells in 6 cm culture plates and treatment with rhHMGB1, followed by counting the cells in a Neubauer chamber at day 0, 2, 4 and 5.

Question: Which “effect on JNK activation after rhHMGB1 treatment” value (JNK1/2) does the source give for `CC(=O)N[C@@H](CS)C(=O)O` [NAC, reference compound] here?
Answer: prevented the activation of JNK

Question: What about the “effect on rhHMGB1-induced cell death” value ([1]; NAC 1 mM, 48 h co-treatment with rhHMGB1 (FIG. 3B)) of the same molecule?
Answer: substantially inhibited

Question: What about the “effect on rhHMGB1-induced ROS generation” value (U251 MG cells [2]) of the same molecule?
Answer: partially prevented

Question: For `O=c1ccn([C@@H]2O[C@H](CO)[C@@H](O)[C@H]2O)c(=O)[nH]1` [uridine, reference compound], which “effect on rhHMGB1-induced cell death” value ([1]; uridine 5 mg/ml in culture medium, 48 h (FIG. 3F)) is on record?
Answer: substantially inhibited

B1: TRAIL: death ligand TRAIL, positive control for cytotoxicity (protein, UniProt P50591 1-281, looked up)
Tumor necrosis factor ligand …: MAMMEVQGGPSLGQTCVLIVIFTVLLQSLCVAVTYVYFTNELKQMQDKYSKSGIACFLKEDDSYWDPNDEESMNSPCWQVKWQLRQLVRKMILRTSEETISTVQEKQQNISPLVRERGPQRVAAHITGTRGRSNTLSSPNSKNEKALGRKINSWESSRSGHSFLSNLHLRNGELVIHEKGFYYIYSQTYFRFQEEIKENTKNDKQMVQYIYKYTSYPDPILLMKSARNSCWSKDAEYGLYSIYQGGIFELKENDRIFVSVTNEHLIDMDHEASFFGAFLVG
Question: For B1, which “release of cytochrome c into the cytosolic fraction” value (U251 MG cells [3]; TRAIL 200 ng/ml, 3 h (FIG. 6)) is on record?
Answer: detected

Question: What about the “cleavage of caspase 3” value (U251 MG cells [3]; TRAIL treatment (FIG. 6)) of the same molecule?
Answer: observed

Question: What about the “apoptotic signalling in pseudo rho zero cells” value (pseudo rho zero cells) of the same molecule?
Answer: still intact
